According to patent US20250145665A1, “MACROCYCLIC PEPTIDES USEFUL AS MODULATORS OF TNF ALPHA” (Bristol-Myers Squibb Company, priority 2023, published 2025):
Starred links: 1 amine or outer side, 2 acyl side, 3 side chain; linkers in the order of their positions; H or OH if unused. Positions of bridges follow the written chain, without caps; N, C: chain ends. Non-standard residues stand in square brackets, D forms with d. Residues, ends and D or L forms follow the SMILES beside them. *: point of attachment. Bip(4'-NHCO-C6H4-4-CH2COOH) = N[C@@H](Cc1ccc(-c2ccc(NC(=O)c3ccc(CC(=O)O)cc3)cc2)cc1)C(=O)O; X78 = O=C(Nc1ccc(-c2ccc(C[C@H](N[*:1])C(=O)[*:2])cc2)cc1)c1n[nH]c2ccccc12; X47 = O=C(Nc1ccc(-c2ccc(C[C@H](N[*:1])C(=O)[*:2])cc2)cc1)c1coc2ccccc12; Bip(4'-NH) = O=C([C@H](Cc1ccc(-c2ccc(N[*:3])cc2)cc1)N[*:1])[*:2]; Bip(4'-CONHMe) = CNC(=O)c1ccc(-c2ccc(C[C@H](N)C(=O)O)cc2)cc1; Indazole3carbonyl(1-CH2COOH) = O=C(O)Cn1nc(C(=O)*)c2ccccc21; Bip(4'-COOH) = N[C@@H](Cc1ccc(-c2ccc(C(=O)O)cc2)cc1)C(=O)O; Bip(4'-NHAc) = CC(=O)Nc1ccc(-c2ccc(C[C@H](N)C(=O)O)cc2)cc1; X80 = N=C(NCCC[C@@H](N[*:1])C(=O)[*:2])NCc1ccc2c(c1)OCO2; X35 = N=C(NCCC[C@@H](N[*:1])C(=O)[*:2])NCCc1ccc(N)cc1; Ala(morpholin-4-yl) = N[C@@H](CN1CCOCC1)C(=O)O; Benzoyl(3-OCH2COOH) = O=C(O)COc1cccc(C(=O)*)c1; Bip = N[C@@H](Cc1ccc(-c2ccccc2)cc1)C(=O)O; 2Pal = N[C@@H](Cc1ccccn1)C(=O)O; 2Thi = N[C@@H](Cc1cccs1)C(=O)O; Cha = N[C@@H](CC1CCCCC1)C(=O)O; Chg = N[C@H](C(=O)O)C1CCCCC1; Aze = O=C(O)[C@@H]1CCN1; Sar = CNCC(=O)O

Target: TNFα (Homo sapiens, UniProt P01375)
Sequence (P01375 77-233 limits assumed): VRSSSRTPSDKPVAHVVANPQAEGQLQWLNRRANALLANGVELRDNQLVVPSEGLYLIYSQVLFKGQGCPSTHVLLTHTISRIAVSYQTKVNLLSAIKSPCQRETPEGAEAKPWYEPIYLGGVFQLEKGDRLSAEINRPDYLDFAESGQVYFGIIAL
Test: TNF-Induced HEK-Blue Assay
Type: cell-based
Details: not given

SMILES	IC50
CC(C)C[C@@H]1NC(=O)[C@H](CCCNC(=N)N)NC(=O)[C@H](C(C)C)NC(=O)[C@@H]2CCCN2C(=O)[C@H](C(C)C)NC(=O)[C@@H](CCCNC(=N)NCCc2ccc(N)cc2)NC(=O)[C@H](CC(=O)O)NC(=O)[C@@H]2CCCN2C(=O)CN(C)C(=O)[C@H](Cc2ccc(-c3ccc(NC(=O)c4nn(CC(=O)O)c5ccccc45)cc3)cc2)NC(=O)[C@H](Cc2ccc(-c3ccccc3)cc2)NC(=O)[C@H](CN2CCOCC2)NC(=O)CSC[C@@H](C(=O)NCC(N)=O)NC1=O [Example 407] ({CH2CO}-[Ala(morpholin-4-yl)][Bip][Bip(4'-NH)](Indazole3carbonyl(1-CH2COOH))[Sar]PD[X35]VPVRLCG-NH2; thioether N-13)	50 to 200 nM
CC(C)C[C@@H]1NC(=O)[C@H](CCCNC(=N)N)NC(=O)[C@H](C(C)C)NC(=O)[C@@H]2CCCN2C(=O)[C@H](C(C)C)NC(=O)[C@@H](CCCNC(=N)NCc2ccc3c(c2)OCO3)NC(=O)[C@H](CC(=O)O)NC(=O)[C@@H]2CCCN2C(=O)CN(C)C(=O)[C@H](Cc2ccc(-c3ccc(NC(=O)c4nn(CC(=O)O)c5ccccc45)cc3)cc2)NC(=O)[C@H](Cc2ccc(-c3ccccc3)cc2)NC(=O)[C@H](CN2CCOCC2)NC(=O)CSC[C@@H](C(=O)NCC(N)=O)NC1=O [Example 509] ({CH2CO}-[Ala(morpholin-4-yl)][Bip][Bip(4'-NH)](Indazole3carbonyl(1-CH2COOH))[Sar]PD[X80]VPVRLCG-NH2; thioether N-13)	< 50 nM

Same assay, conditions: HEK-Blue-CD40L cells, NF-kB-driven secreted alkaline phosphatase reporter; TNFα 0.5 ng/ml; 18 h; read-out: TNF induced HEK-Blue assay IC50 value

IC50	SMILES
50 to 200 nM	CC(C)C[C@@H]1NC(=O)[C@H](CCCNC(=N)N)NC(=O)[C@H](C(C)C)NC(=O)[C@@H]2CCCN2C(=O)[C@H](Cc2ccc(O)cc2)NC(=O)[C@H](CCCNC(=N)N)NC(=O)[C@H](CC(=O)O)NC(=O)[C@@H]2CCCN2C(=O)CN(C)C(=O)[C@H](Cc2ccc(-c3ccccc3)cc2)NC(=O)[C@H](Cc2ccc(-c3ccccc3)cc2)NC(=O)[C@H](CN2CCOCC2)NC(=O)CSC[C@@H](C(=O)NCC(N)=O)NC1=O [Example 56] ({CH2CO}-[Ala(morpholin-4-yl)][Bip][Bip][Sar]PDRYPVRLCG-NH2; thioether N-13)
< 50 nM	CC(=O)Nc1ccc(-c2ccc(C[C@@H]3NC(=O)[C@H](Cc4ccc(-c5ccccc5)cc4)NC(=O)[C@H](CN4CCOCC4)NC(=O)CSC[C@@H](C(=O)NCC(N)=O)NC(=O)[C@H](CC(C)C)NC(=O)[C@H](Cc4ccc(O)cc4)NC(=O)[C@H](C(C)C)NC(=O)[C@@H]4CCN4C(=O)[C@H](C(C)C)NC(=O)[C@@H](CCCNC(=N)N)NC(=O)[C@H](CC(=O)O)NC(=O)[C@H](Cc4ccccn4)NC(=O)CN(C)C3=O)cc2)cc1 [Example 170] ({CH2CO}-[Ala(morpholin-4-yl)][Bip][Bip(4'-NHAc)][Sar][2Pal]D[dR]V[Aze]VYLCG-NH2; thioether N-13)
200 to 2000 nM	CC(C)C[C@@H]1NC(=O)[C@H](CCCNC(=N)N)NC(=O)[C@H](C(C)C)NC(=O)[C@@H]2CCCN2C(=O)[C@H](C(C)C)NC(=O)[C@H](CCCNC(=N)N)NC(=O)[C@H](CC(=O)O)NC(=O)[C@@H]2CCCN2C(=O)CN(C)C(=O)[C@H](Cc2ccc(-c3ccccc3)cc2)NC(=O)[C@H](Cc2ccc(-c3ccccc3)cc2)NC(=O)[C@H](Cc2ccccn2)NC(=O)CSC[C@@H](C(=O)NCC(N)=O)NC1=O [Example 30] ({CH2CO}-[2Pal][Bip][Bip][Sar]PDRVPVRLCG-NH2; thioether N-13)
50 to 200 nM	CC[C@H](C)[C@@H]1NC(=O)[C@@H](CCCNC(=N)N)NC(=O)[C@H](CC(=O)O)NC(=O)[C@@H]2CCCN2C(=O)CN(C)C(=O)[C@H](Cc2ccc(-c3ccc(NC(=O)c4cccc(OCC(=O)O)c4)cc3)cc2)NC(=O)[C@H](Cc2ccc(-c3ccc(C(=O)O)cc3)cc2)NC(=O)[C@H](CN2CCOCC2)NC(=O)CSC[C@@H](C(=O)NCC(N)=O)NC(=O)[C@H](CC(C)C)NC(=O)[C@H](Cc2cnc[nH]2)NC(=O)[C@H](C(C)C)NC(=O)[C@@H]2CCCN2C1=O [Example 577] ({CH2CO}-[Ala(morpholin-4-yl)][Bip(4'-COOH)][Bip(4'-NH)](Benzoyl(3-OCH2COOH))[Sar]PD[dR]IPVHLCG-NH2; thioether N-13)
50 to 200 nM	CC[C@H](C)[C@@H]1NC(=O)[C@@H](CCCNC(=N)N)NC(=O)[C@H](CC(=O)O)NC(=O)[C@H](Cc2cnc[nH]2)NC(=O)CN(C)C(=O)[C@H](Cc2ccc(-c3ccccc3)cc2)NC(=O)[C@H](Cc2ccc(-c3ccc(C(=O)NC)cc3)cc2)NC(=O)[C@H](CC2CCCCC2)NC(=O)CSC[C@@H](C(=O)NCC(N)=O)NC(=O)[C@H](CC(C)C)NC(=O)[C@H](Cc2cnc[nH]2)NC(=O)[C@H](C(C)C)NC(=O)[C@@H]2CCCN2C1=O [Example 397] ({CH2CO}-[Cha][Bip(4'-CONHMe)][Bip][Sar]HD[dR]IPVHLCG-NH2; thioether N-13)
< 50 nM	CC(C)C[C@@H]1NC(=O)[C@H](CCCNC(=N)N)NC(=O)[C@H](C(C)C)NC(=O)[C@@H]2CCCN2C(=O)[C@H](C(C)C)NC(=O)[C@@H](CCCNC(=N)N)NC(=O)[C@H](CC(=O)O)NC(=O)[C@@H]2CCCN2C(=O)CN(C)C(=O)[C@H](Cc2ccc(-c3ccc(NC(=O)c4n[nH]c5ccccc45)cc3)cc2)NC(=O)[C@H](Cc2ccc(-c3ccccc3)cc2)NC(=O)[C@H](CN2CCOCC2)NC(=O)CSC[C@@H](C(=O)NCC(N)=O)NC1=O [Example 343] ({CH2CO}-[Ala(morpholin-4-yl)][Bip][X78][Sar]PD[dR]VPVRLCG-NH2; thioether N-13)
50 to 200 nM	CC(=O)Nc1ccc(-c2ccc(C[C@@H]3NC(=O)[C@H](Cc4ccc(-c5ccc(C(=O)O)cc5)cc4)NC(=O)[C@H](CC4CCCCC4)NC(=O)CSC[C@@H](C(=O)NCC(N)=O)NC(=O)[C@H](CC(C)C)NC(=O)[C@H](Cc4cnc[nH]4)NC(=O)[C@H](C4CCCCC4)NC(=O)[C@@H]4CCN4C(=O)[C@H](C(C)C)NC(=O)[C@@H](CCCNC(=N)N)NC(=O)[C@H](CC(=O)O)NC(=O)[C@H](Cc4cnc[nH]4)NC(=O)CN(C)C3=O)cc2)cc1 [Example 272] ({CH2CO}-[Cha][Bip(4'-COOH)][Bip(4'-NHAc)][Sar]HD[dR]V[Aze][Chg]HLCG-NH2; thioether N-13)
< 50 nM	CC(C)C[C@@H]1NC(=O)[C@H](CCCNC(=N)N)NC(=O)[C@H](C(C)C)NC(=O)[C@@H]2CCCN2C(=O)[C@H](C(C)C)NC(=O)[C@@H](CCCNC(=N)N)NC(=O)[C@H](CC(=O)O)NC(=O)[C@@H]2CCCN2C(=O)CN(C)C(=O)[C@H](Cc2ccc(-c3ccc(NC(=O)c4coc5ccccc45)cc3)cc2)NC(=O)[C@H](Cc2ccc(-c3ccccc3)cc2)NC(=O)[C@H](CN2CCOCC2)NC(=O)CSC[C@@H](C(=O)NCC(N)=O)NC1=O [Example 346] ({CH2CO}-[Ala(morpholin-4-yl)][Bip][X47][Sar]PD[dR]VPVRLCG-NH2; thioether N-13)
< 50 nM	CC(C)C[C@@H]1NC(=O)[C@H](Cc2cccs2)NC(=O)[C@H](C(C)C)NC(=O)[C@@H]2CCCN2C(=O)[C@H](C(C)C)NC(=O)[C@@H](CCCNC(=N)N)NC(=O)[C@H](CC(=O)O)NC(=O)[C@H](Cc2ccccn2)NC(=O)CN(C)C(=O)[C@H](Cc2ccc(-c3ccc(NC(=O)c4ccc(CC(=O)O)cc4)cc3)cc2)NC(=O)[C@H](Cc2ccc(-c3ccccc3)cc2)NC(=O)[C@H](CC2CCCCC2)NC(=O)CSC[C@@H](C(=O)NCC(N)=O)NC1=O [Example 617] ({CH2CO}-[Cha][Bip][Bip(4'-NHCO-C6H4-4-CH2COOH)][Sar][2Pal]D[dR]VPV[2Thi]LCG-NH2; thioether N-13)
